This passage reports IC50, Papp A→B and Papp B→A results from patent US11643388B2, “Inhibitors of alpha 2 beta 1 integrin and methods of use thereof” (The Regents of the University of California, priority 2020, dated 2023).

One data set addresses α4β1 (Homo sapiens, UniProt P05556+P13612). Briefly: α4β1 cell adhesion. It counts as cell-based.
For data set [1], the target named is T1, α2β1 (Homo sapiens, UniProt P05556+P17301). Description: α2β1 cell adhesion. The data set is classed as cell-based.
T1 sequence (P17301 30-1181): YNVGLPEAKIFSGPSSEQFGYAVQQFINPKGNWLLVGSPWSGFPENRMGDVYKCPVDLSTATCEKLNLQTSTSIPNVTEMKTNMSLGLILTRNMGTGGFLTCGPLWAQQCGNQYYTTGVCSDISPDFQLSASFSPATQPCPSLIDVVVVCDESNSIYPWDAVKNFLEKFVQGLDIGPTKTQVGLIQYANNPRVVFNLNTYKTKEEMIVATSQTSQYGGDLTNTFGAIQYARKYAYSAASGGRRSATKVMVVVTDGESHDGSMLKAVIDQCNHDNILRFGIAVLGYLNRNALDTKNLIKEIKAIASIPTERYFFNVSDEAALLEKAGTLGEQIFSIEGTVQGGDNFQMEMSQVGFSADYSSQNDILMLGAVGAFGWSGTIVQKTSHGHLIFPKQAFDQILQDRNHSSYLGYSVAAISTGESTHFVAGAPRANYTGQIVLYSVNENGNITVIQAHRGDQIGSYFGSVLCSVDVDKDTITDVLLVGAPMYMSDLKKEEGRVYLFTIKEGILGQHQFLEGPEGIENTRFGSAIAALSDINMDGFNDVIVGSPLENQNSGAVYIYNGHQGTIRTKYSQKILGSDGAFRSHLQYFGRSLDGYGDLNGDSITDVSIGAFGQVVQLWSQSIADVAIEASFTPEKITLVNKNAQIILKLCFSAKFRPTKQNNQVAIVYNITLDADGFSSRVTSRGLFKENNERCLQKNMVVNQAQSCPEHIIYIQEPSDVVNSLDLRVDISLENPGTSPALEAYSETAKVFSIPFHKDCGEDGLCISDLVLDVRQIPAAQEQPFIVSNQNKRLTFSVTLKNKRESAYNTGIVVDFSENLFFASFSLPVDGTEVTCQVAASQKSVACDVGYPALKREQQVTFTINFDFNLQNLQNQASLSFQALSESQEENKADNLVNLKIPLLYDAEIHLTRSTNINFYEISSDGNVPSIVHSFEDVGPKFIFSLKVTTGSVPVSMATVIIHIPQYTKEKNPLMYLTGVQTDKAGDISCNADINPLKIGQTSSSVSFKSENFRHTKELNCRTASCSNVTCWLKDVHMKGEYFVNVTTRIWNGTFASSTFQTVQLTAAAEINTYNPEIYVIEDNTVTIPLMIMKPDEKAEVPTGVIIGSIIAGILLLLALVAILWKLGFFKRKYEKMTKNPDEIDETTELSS
T1 sequence (P05556 21-798): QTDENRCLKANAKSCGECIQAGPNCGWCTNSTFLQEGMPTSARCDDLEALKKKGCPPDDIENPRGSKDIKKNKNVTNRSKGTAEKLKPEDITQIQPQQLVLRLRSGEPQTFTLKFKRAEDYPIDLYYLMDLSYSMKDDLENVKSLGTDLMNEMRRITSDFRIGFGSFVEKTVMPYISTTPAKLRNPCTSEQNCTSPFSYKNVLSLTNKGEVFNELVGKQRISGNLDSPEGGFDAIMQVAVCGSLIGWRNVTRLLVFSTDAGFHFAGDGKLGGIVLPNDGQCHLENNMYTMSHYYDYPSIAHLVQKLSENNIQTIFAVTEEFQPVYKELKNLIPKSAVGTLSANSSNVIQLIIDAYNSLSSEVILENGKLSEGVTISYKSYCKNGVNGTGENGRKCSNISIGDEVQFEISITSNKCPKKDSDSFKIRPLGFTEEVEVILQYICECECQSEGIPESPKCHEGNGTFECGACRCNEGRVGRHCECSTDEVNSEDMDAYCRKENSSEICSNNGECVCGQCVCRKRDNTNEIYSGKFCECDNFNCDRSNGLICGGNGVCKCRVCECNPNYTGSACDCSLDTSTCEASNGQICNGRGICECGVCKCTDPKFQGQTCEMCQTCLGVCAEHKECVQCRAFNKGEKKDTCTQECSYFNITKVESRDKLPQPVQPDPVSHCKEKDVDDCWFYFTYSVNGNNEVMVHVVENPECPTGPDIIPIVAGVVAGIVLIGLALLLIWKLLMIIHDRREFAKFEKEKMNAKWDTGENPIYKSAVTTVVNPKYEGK
The target of data set [2] is T1, α2β1. Briefly: α2β1 cell adhesion assay. It counts as cell-based.
A further data set is described as follows: Caco-2 permeability. The data set is classed as in vitro ADME. As to conditions: human; for Papp A→B: A-B direction; for Papp B→A: B-A direction.

Chain of α4β1 (P13612 34-1032): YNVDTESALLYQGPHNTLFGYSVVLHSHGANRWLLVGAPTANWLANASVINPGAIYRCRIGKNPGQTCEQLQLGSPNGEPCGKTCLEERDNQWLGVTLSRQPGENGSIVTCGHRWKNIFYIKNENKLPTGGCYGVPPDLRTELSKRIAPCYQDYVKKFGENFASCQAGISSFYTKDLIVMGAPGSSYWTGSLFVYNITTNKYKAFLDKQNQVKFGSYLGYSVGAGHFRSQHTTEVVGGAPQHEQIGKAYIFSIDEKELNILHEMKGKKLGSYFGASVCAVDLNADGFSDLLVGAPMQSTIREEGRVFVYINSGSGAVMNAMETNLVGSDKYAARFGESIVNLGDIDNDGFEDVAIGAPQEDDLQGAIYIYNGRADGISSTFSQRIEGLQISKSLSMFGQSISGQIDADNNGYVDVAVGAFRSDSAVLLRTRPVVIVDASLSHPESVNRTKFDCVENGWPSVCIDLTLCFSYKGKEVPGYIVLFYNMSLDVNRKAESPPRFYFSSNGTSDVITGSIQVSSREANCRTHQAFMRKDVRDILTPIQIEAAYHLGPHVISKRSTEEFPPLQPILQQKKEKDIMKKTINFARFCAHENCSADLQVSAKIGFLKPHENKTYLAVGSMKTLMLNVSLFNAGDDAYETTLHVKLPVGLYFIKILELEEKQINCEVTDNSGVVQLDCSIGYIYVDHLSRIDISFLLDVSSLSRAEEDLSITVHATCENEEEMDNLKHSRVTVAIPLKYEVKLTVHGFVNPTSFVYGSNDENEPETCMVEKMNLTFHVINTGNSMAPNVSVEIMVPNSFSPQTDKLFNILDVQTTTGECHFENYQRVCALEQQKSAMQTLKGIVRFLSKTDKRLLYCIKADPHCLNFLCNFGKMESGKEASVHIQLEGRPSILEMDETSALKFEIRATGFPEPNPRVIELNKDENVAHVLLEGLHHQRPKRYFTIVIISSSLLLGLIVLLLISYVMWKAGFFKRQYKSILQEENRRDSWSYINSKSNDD
Chain of α4β1 (P05556 21-798): as the sequence (P05556 21-798) above

Regarding `CN(Cc1ccccc1)C(=O)NC[C@H](NC(=O)c1c(Cl)cccc1Cl)C(=O)O` [SU15210-0167-01], the IC50 – broadly, the concentration needed to halve the response being measured – against α4β1 was 83900 nM; on α2β1 [1] it was below 500 nM. In turn, `O=C(NC[C@H](NC(=O)c1c(Cl)cc(C(=O)NCc2ccc(Cl)c(Cl)c2)cc1Cl)C(=O)O)N[C@@H]1CCc2ccccc21` [SU15210-0291, (S)-2-(2,6-dichloro-4-(3,4-dichlorobenzylcarbamoyl)benzamido)-3-(3-((R)-2,3-dihydro-1H-inden-1-yl)ureido)propanoic Acid] gave an IC50 against α2β1 [2] below 500 nM.

As to `CCOC(=O)[C@H](CNC(=O)N[C@@H]1CCc2ccccc21)NC(=O)c1c(Cl)cc(C(=O)NCc2cccc(Cl)c2)cc1Cl` [SU15210-0280, (S)-ethyl 2-(2,6-dichloro-4-(3-chlorobenzylcarbamoyl)benzamido)-3-(3-((R)-2,3-dihydro-1H-inden-1-yl)ureido)propanoate], on α2β1 [2], the IC50 fell in the range of 1000 to 5000 nM.

For the molecule `O=C(NC[C@H](NC(=O)c1c(Cl)cc(C(=O)NCc2cccc(Cl)c2)cc1Cl)C(=O)O)N[C@@H]1CCc2cc(Cl)ccc21` [SU15210-0294, (S)-3-(3-((R)-5-chloro-2,3-dihydro-1H-inden-1-yl)ureido)-2-(2,6-dichloro-4-(3-chlorobenzylcarbamoyl)benzamido)propanoic Acid], at α2β1 [2], the IC50 was in the range of 500 to 1000 nM. With `O=C(CCc1ccccc1)Nc1ccc(Cl)c(C(=O)N[C@@H](CNC(=O)N[C@@H]2CCc3ccccc32)C(=O)O)c1Cl` [SU15210-0124-01, (S)-2-(2,6-dichloro-3-(3-phenylpropanamido)benzamido)-3-(3-((R)-2,3-dihydro-1H-inden-1-yl)ureido)propanoic Acid], the values for the half-maximal inhibitory concentration (IC50) on α4β1 and against α2β1 [1] were 21000 nM and below 500 nM, respectively. On α2β1 [2], `O=C(NC[C@H](NC(=O)c1c(Cl)cc2c(c1Cl)CCN(Cc1ccc(Cl)cc1)C2=O)C(=O)O)N[C@@H]1CCc2ccccc21` [SU15210-0244-01] came in with an IC50 above 5000 nM. Regarding `O=C(NC[C@H](NC(=O)c1c(Cl)cc(C(=O)NCc2cccc(Cl)c2)cc1Cl)C(=O)O)N[C@@H]1CCc2ccccc21` [SU15210-0185-01, (S)-2-(2,6-dichloro-4-(3-chlorobenzylcarbamoyl)benzamido)-3-(3-((R)-2,3-dihydro-1H-inden-1-yl)ureido)propanoic Acid], the IC50 against α2β1 [1] is below 500 nM. In “Caco-2 permeability”, the Papp A→B (as a rule, how fast a substance crosses the layer from the apical side) worked out at 2.2 ×10⁻⁶ cm/s and the Papp B→A (usually the apparent permeability from the basolateral to the apical side of a cell layer) came to 5.53 ×10⁻⁶ cm/s. `O=C(NC[C@H](NC(=O)c1c(Cl)cc(C(=O)NCc2cccc(F)c2)cc1Cl)C(=O)O)N[C@@H]1CCc2ccccc21` [SU15210-0289, (S)-2-(2,6-dichloro-4-(3-fluorobenzylcarbamoyl)benzamido)-3-(3-((R)-2,3-dihydro-1H-inden-1-yl)ureido)propanoic Acid]: the IC50 on α2β1 [2] is below 500 nM.

In turn, `CN(Cc1ccccc1)C(=O)NC[C@H](NC(=O)c1c(Cl)cc2c(c1Cl)CCN(CC#CC1CC1)C2=O)C(=O)O` [SU15210-0265, (S)-3-(3-benzyl-3-methylureido)-2-(5,7-dichloro-2-(3-cyclopropylprop-2-ynyl)-1-oxo-1,2,3,4-tetrahydroisoquinoline-6-carboxamido)propanoic Acid] returned an IC50 at α2β1 [2] above 5000 nM. `CN(Cc1ccccc1)C(=O)NC[C@H](NC(=O)c1c(Cl)cc(C(=O)NCc2cccc(O)c2)cc1Cl)C(=O)O` [SU15210-0186-01, (S)-3-(3-benzyl-3-methylureido)-2-(2,6-dichloro-4-(3-hydroxybenzylcarbamoyl)benzamido)propanoic Acid] came in with an IC50 at α2β1 [1] below 500 nM. In “Caco-2 permeability”, this molecule registered a Papp A→B of 2.2 ×10⁻⁶ cm/s and a Papp B→A of 1.5 ×10⁻⁶ cm/s.

As to `COc1cccc(CNC(=O)c2cc(Cl)c(C(=O)N[C@@H](CNC(=O)N[C@@H]3CCc4ccccc43)C(=O)O)c(Cl)c2)c1` [SU15210-0290-01, (S)-2-(2,6-dichloro-4-(3-methoxybenzylcarbamoyl)benzamido)-3-(3-((R)-2,3-dihydro-1H-inden-1-yl)ureido)propanoic Acid], on α2β1 [2], the IC50 was below 500 nM.

As for `O=C(NC[C@H](NC(=O)c1c(Cl)cc2c(c1Cl)CCN(Cc1cccc(Cl)c1)C2=O)C(=O)O)N[C@@H]1CCc2ccccc21` [SU15210-0243-01, (2S)-2-[[5,7-dichloro-2-[(3-chlorophenyl)methyl]-1-oxo-3,4-dihydroisoquinoline-6-carbonyl]amino]-3-[[(1R)-indan-1-yl]carbamoylamino]propanoic Acid], the IC50 against α2β1 [2] was above 5000 nM.

In the case of `O=C(NC[C@H](NC(=O)c1c(Cl)cc(C(=O)NCc2cccc(C(F)(F)F)c2)cc1Cl)C(=O)O)N[C@@H]1CCc2ccccc21` [SU15210-0293, (S)-2-(2,6-dichloro-4-(3-(trifluoromethyl)benzylcarbamoyl)benzamido)-3-(3-((R)-2,3-dihydro-1H-inden-1-yl)ureido)propanoic Acid], at α2β1 [2], the IC50 is below 500 nM. With `O=C(NC[C@H](NC(=O)c1c(Cl)ccc(NCCCc2ccccc2)c1Cl)C(=O)O)N[C@@H]1CCc2ccccc21` [SU15210-0098-01, (S)-2-(2,6-dichloro-3-(3-phenylpropylamino)benzamido)-3-(3-((R)-2,3-dihydro-1H-inden-1-yl)ureido)propanoic Acid], the IC50 at α4β1 is 32300 nM; against α2β1 [1] it was below 500 nM. Molecule `CN(Cc1ccccc1)C(=O)NC[C@H](NC(=O)c1c(Cl)cc2c(c1Cl)CCN(CC1CC1)C2=O)C(=O)O` [SU15210-0251, (2S)-3-[[benzyl(methyl)carbamoyl]amino]-2-[[5,7-dichloro-2-(cyclopropylmethyl)-1-oxo-3,4-dihydroisoquinoline-6-carbonyl]amino]propanoic Acid] displayed an IC50 on α2β1 [2] of 1000 to 5000 nM. With `N#Cc1cccc(CNC(=O)c2cc(Cl)c(C(=O)N[C@@H](CNC(=O)N[C@@H]3CCc4ccccc43)C(=O)O)c(Cl)c2)c1` [SU15210-0292, (S)-2-(2,6-dichloro-4-(3-cyanobenzylcarbamoyl)benzamido)-3-(3-((R)-2,3-dihydro-1H-inden-1-yl)ureido)propanoic Acid], the IC50 on α2β1 [2] was below 500 nM. Same read-out and setting: the result for `CCOC(=O)[C@H](CNC(=O)N(C)Cc1ccccc1)NC(=O)c1c(Cl)cc2c(c1Cl)CCN(Cc1cccc(Cl)c1)C2=O` [SU15210-0270-01, (S)-ethyl 3-(3-benzyl-3-methylureido)-2-(5,7-dichloro-2-(3-chlorobenzyl)-1-oxo-1,2,3,4-tetrahydroisoquinoline-6-carboxamido)propanoate] reads 500 to 1000 nM; that for `CN(Cc1ccccc1)C(=O)NC[C@H](NC(=O)c1c(Cl)cc2c(c1Cl)CCN(Cc1ccccc1)C2=O)C(=O)O` [SU15210-0245-01, (2S)-2-[(2-benzyl-5,7-dichloro-1-oxo-3,4-dihydroisoquinoline-6-carbonyl)amino]-3-[[benzyl(methyl)carbamoyl]amino]propanoic Acid], above 5000 nM. In turn, `O=C(NC[C@H](NC(=O)c1c(Cl)cc(N2CC(c3ccccc3)C2)cc1Cl)C(=O)O)N[C@@H]1CCc2ccccc21` [SU15210-0190-01] came in with an IC50 at α2β1 [1] above 5000 nM. `O=C(NC[C@H](NC(=O)c1c(Cl)ccc(NCCc2ccccc2)c1Cl)C(=O)O)N[C@@H]1CCc2ccccc21` [SU15210-0097-01, (S)-2-(2,6-dichloro-3-(phenethylamino)benzamido)-3-(3-((R)-2,3-dihydro-1H-inden-1-yl)ureido)propanoic Acid] came in with an IC50 on α2β1 [1] of 1000 to 5000 nM. Consider `O=C(NC[C@H](NC(=O)c1c(Cl)ccc(NC2CCc3ccccc3C2)c1Cl)C(=O)O)N[C@@H]1CCc2ccccc21` (stereo partly drawn) [SU15210-0126-01, (2S)-2-(2,6-dichloro-3-(1,2,3,4-tetrahydronaphthalen-2-ylamino)benzamido)-3-(3-((R)-2,3-dihydro-1H-inden-1-yl)ureido)propanoic Acid], for which the IC50 against α2β1 [1] lay within 1000 to 5000 nM.

As for `O=C(NC[C@H](NC(=O)c1c(Cl)cc(-n2cnc(-c3ccccc3)c2)cc1Cl)C(=O)O)N[C@@H]1CCc2ccccc21` [SU15210-0192-01, (S)-2-(2,6-dichloro-4-(4-phenyl-1H-imidazol-1-yl)benzamido)-3-(3-((R)-2,3-dihydro-1H-inden-1-yl)ureido)propanoic Acid], the IC50 against α2β1 [1] was in the range of 1000 to 5000 nM. As for `CC(C)CCNc1ccc(Cl)c(C(=O)N[C@@H](CNC(=O)N[C@@H]2CCc3ccccc32)C(=O)O)c1Cl` [SU15210-0125-01, (S)-2-(2,6-dichloro-3-(isopentylamino)benzamido)-3-(3-((R)-2,3-dihydro-1H-inden-1-yl)ureido)propanoic Acid], the IC50 against α2β1 [1] was in the range of 1000 to 5000 nM. Same read-out and setting: the same measure for `O=C(NC[C@H](NC(=O)c1c(Cl)cc2c(c1Cl)CCN(Cc1ccc(F)cc1)C2)C(=O)O)N[C@@H]1CCc2ccccc21` [SU15210-0210-01, (S)-2-(5,7-dichloro-2-(4-fluorobenzyl)-1,2,3,4-tetrahydroisoquinoline-6-carboxamido)-3-(3-((R)-2,3-dihydro-1H-inden-1-yl)ureido)propanoic Acid]: 1000 to 5000 nM; for `O=C(NC[C@H](NC(=O)c1c(Cl)cc(C(=O)N2CCc3ccccc3C2)cc1Cl)C(=O)O)N[C@@H]1CCc2ccccc21` [SU15210-0227-01, (S)-2-(2,6-dichloro-4-(1,2,3,4-tetrahydroisoquinoline-2-carbonyl)benzamido)-3-(3-((R)-2,3-dihydro-1H-inden-1-yl)ureido)propanoic Acid]: 500 to 1000 nM. Molecule `CN(Cc1ccccc1)C(=O)NC[C@H](NC(=O)c1c(Cl)cc2c(c1Cl)CCN(Cc1cccc(Cl)c1)C2=O)C(=O)O` [SU15210-0242-01, (S)-3-(3-benzyl-3-methylureido)-2-(5,7-dichloro-2-(3-chlorobenzyl)-1-oxo-1,2,3,4-tetrahydroisoquinoline-6-carboxamido)propanoic Acid] displayed an IC50 against α2β1 [2] below 500 nM. For `O=C(NC[C@H](NC(=O)c1c(Cl)cc(OCCc2ccccc2)cc1Cl)C(=O)O)N[C@@H]1CCc2ccccc21` [SU15210-0188-01, (S)-2-(2,6-dichloro-4-phenethoxybenzamido)-3-(3-((R)-2,3-dihydro-1H-inden-1-yl)ureido)propanoic Acid], the IC50 against α2β1 [1] was 1000 to 5000 nM. As for `O=C(NC[C@H](NC(=O)c1c(Cl)ccc(N2CC(c3ccc(Cl)cc3)C2)c1Cl)C(=O)O)N[C@@H]1CCc2ccccc21` [SU15210-0163-01, (S)-2-(2,6-dichloro-3-(3-(4-chlorophenyl)azetidin-1-yl)benzamido)-3-(3-((R)-2,3-dihydro-1H-inden-1-yl)ureido)propanoic Acid], at α2β1 [1], the IC50 is 1000 to 5000 nM.
